Data from patent publication US12534469B2 (CHILDREN'S HOSPITAL MEDICAL CENTER, priority 2020, dated 2026).

Target: T1, FLT3 N841I (Homo sapiens, UniProt P36888, N841I)
T1 construct: purchased DiscoverX (KINOMEscan); host or cells: E. coli (T7 phage) or HEK-293
T1 sequence (P36888 27-993 N841I): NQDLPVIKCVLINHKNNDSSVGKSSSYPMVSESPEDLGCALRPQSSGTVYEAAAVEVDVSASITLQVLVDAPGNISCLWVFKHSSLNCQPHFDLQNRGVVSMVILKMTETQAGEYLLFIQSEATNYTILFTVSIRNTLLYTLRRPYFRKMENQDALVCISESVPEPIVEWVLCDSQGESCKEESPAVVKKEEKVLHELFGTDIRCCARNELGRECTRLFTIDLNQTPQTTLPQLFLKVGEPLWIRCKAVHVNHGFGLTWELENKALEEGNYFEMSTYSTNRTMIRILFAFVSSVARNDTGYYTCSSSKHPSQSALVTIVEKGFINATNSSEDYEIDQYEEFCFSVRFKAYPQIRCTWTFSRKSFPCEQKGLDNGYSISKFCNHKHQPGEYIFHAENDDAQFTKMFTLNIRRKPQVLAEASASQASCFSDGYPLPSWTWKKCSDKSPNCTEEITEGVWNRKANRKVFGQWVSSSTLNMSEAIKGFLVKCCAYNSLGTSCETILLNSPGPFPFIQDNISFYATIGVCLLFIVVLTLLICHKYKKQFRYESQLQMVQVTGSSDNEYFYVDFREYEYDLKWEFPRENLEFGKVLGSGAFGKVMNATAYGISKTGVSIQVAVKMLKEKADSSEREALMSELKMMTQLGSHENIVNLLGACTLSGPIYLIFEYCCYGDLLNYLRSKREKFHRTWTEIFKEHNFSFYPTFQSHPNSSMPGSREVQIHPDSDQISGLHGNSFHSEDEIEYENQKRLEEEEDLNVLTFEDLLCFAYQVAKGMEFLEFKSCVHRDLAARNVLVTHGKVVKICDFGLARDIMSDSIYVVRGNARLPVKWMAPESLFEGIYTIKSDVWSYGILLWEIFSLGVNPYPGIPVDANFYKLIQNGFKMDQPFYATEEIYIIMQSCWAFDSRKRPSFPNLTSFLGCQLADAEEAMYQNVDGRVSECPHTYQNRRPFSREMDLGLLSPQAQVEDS
Assay: DiscoverX KINOMEscan competition binding assay, FLT3 N841I
Source text: Kinase binding data were obtained for various exemplary compounds prepared according to Examples 1-25 using the DiscoverX KINOMEscan® active site-directed competition binding site-directed assay protocol described below. […] As a result, the data report thermodynamic interaction affinities (Kd values), rather than IC50 values that are dependent on ATP concentrations. The assay uses a DNA-tagged version of the protein kinase, and an immobilized ligand bound to a solid support. Compounds that directly or indirectly prevent kinase binding to the immobilized ligand reduce the amount of kinase captured on the solid support, which is detected using an ultra-sensitive qPCR method. Affinity constants reported from the assay have been reported to be independent of the immobilized ligand used that is coupled to the solid support (See supplemental information in Fabian, M. A. et. al., (2005) Nat. Biotechnol. 23, 329-336; Wodicka, L. M. et. al., (2010) Chem. Biol. 17, 1241-1249.)
Kinase-tagged T7 phage strains were prepared in an E. coli host derived from the BL21 strain. E. coli were grown to log-phase and infected with T7 phage and incubated with shaking at 32° C. until lysis. The lysates were centrifuged and filtered to remove cell debris. The remaining kinases were produced in HEK-293 cells and subsequently tagged with DNA for qPCR detection. […] The liganded beads were blocked with excess biotin and washed with blocking buffer (SeaBlock (Pierce), 1% BSA, 0.05% Tween 20, 1 mM DTT) to remove unbound ligand and to reduce non-specific binding. […] Test compounds were prepared as 111× stocks in 100% DMSO. Kds were determined using an 11-point 3-fold compound dilution series with three DMSO control points. […] The compounds were then diluted directly into the assays such that the final concentration of DMSO was 0.9%. All reactions were performed in polypropylene 384-well plates. Each was a final volume of 0.02 mL. […] The kinase concentration in the eluates was measured by qPCR.
Binding constants (Kds) were calculated with a standard dose-response curve using the Hill equation. […]

Kd [nM] | SMILES
0.91 | COc1cc2ncc(-c3cccc(N[C@H]4CNC[C@@H]4F)n3)n2nc1C1CC1 [Compound 96, 6-(6-cyclopropyl-7-methoxyimidazo[1,2-b]pyridazin-3-yl)-N-((3S,4S)-4-fluoropyrrolidin-3-yl)pyridin-2-amine]
0.55 | COc1cc2ncc(-c3cccc(N[C@@H]4CCNC4)n3)n2nc1C1CC1 [Compound 97, (R)-6-(6-cyclopropyl-7-methoxyimidazo[1,2-b]pyridazin-3-yl)-N-(pyrrolidin-3-yl)pyridin-2-amine]
0.36 | COc1cc2ncc(-c3cccc(N[C@H]4CNCC[C@@H]4F)n3)n2nc1C1CC1 [Compound 102, 6-(6-cyclopropyl-7-methoxyimidazo[1,2-b]pyridazin-3-yl)-N-((3S,4S)-4-fluoropiperidin-3-yl)pyridin-2-amine]
